Data on 20 molecules can be found in US7964607B2, “Pyrazolo[3,4-d]pyrimidine compounds” (Pfizer Inc., priority 2007, dated 2011).

In general, IC50 refers to the midpoint of a concentration-inhibition curve.

In one test the target is T1, human recombinant PDE9 enzyme (Homo sapiens, UniProt O76083).
T1 construct: made in house; host or cells: SF-9 insect cells
T1 sequence (O76083 whole entry): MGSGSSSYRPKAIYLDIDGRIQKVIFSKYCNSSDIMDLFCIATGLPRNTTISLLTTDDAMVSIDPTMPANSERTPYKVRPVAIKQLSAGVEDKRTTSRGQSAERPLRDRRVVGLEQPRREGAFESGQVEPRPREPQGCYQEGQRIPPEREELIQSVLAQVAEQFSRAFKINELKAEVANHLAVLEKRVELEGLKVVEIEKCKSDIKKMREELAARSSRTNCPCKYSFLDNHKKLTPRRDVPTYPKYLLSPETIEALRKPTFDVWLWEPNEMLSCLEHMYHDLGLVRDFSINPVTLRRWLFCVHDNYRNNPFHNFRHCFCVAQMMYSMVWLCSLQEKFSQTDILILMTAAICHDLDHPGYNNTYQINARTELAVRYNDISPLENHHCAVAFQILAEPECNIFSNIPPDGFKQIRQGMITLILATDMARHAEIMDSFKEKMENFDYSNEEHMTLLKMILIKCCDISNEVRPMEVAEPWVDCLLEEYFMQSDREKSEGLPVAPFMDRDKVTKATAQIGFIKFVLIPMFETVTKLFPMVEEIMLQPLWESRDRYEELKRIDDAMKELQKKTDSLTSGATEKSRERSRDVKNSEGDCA
Briefly: Phosphodiesterase 9 (PDE9) inhibitory activity, Scintillation Proximity (SPA) assay. The class given is biochemical.
Settings: not given
The method in brief:
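Scintillation proximity read-out of [3H]cGMP hydrolysis after 30 min at room temperature, with enzyme addition starting the reaction. The enzyme was human recombinant PDE9 expressed in SF-9 cells, titrated to keep substrate turnover at 20% or less. Compound wells held 2% DMSO final, and background was defined with excess PDE inhibitor.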
A general note: Scintillation proximity formats need no separation of bound from free tracer.
For the molecule `C[C@@H]1CN(Cc2ccccc2)C[C@H]1c1nc2c(cnn2C2CCOCC2)c(=O)[nH]1` (racemic) [Example 60, 6-[(3,4-trans)-1-benzyl-4-methylpyrrolidin-3-yl]-1-(tetrahydro-2H-pyran-4-yl)-1,5-dihydro-4H-pyrazolo[3,4-d]pyrimidin-4-one], the half-maximal inhibitory concentration (IC50) was determined as 0.0448 µM.
The same measure, in the same setting: next, `Cc1cnc(CN2C[C@@H](C)[C@H](c3nc4c(cnn4C4CCOCC4)c(=O)[nH]3)C2)cn1` [Example 75, 6-{(3S,4S)-4-methyl-1-[(5-methylpyrazin-2-yl)methyl]pyrrolidin-3-yl}-1-(tetrahydro-2H-pyran-4-yl)-1,5-dihydro-4H-pyrazolo[3,4-d]pyrimidin-4-one]: 0.00546 µM.

The test is the same for the next values; noted with them: human recombinant PDE9 from SF-9 cells; 50 nM [3H]cGMP; room temperature, 30 min; Examples 3-114; read-out: G5678A (U): IC50.
In the case of `COc1ccccc1CN1C[C@@H](C)[C@H](c2nc3c(cnn3C3CCOCC3)c(=O)[nH]2)C1` [Example 103, 6-[(3S,4S)-1-(2-methoxybenzyl)-4-methylpyrrolidin-3-yl]-1-(tetrahydro-2H-pyran-4-yl)-1,5-dihydro-4H-pyrazolo[3,4-d]pyrimidin-4-one], the IC50 amounted to 0.0152 µM.
Same read-out and setting: next, `C[C@@H]1CN(Cc2cccnc2)C[C@H]1c1nc2c(cnn2C2CCCC2)c(=O)[nH]1` (racemic) [Example 7, 1-cyclopentyl-6-[(3,4-trans)-4-methyl-1-(pyridin-3-ylmethyl)pyrrolidin-3-yl]-1,5-dihydro-4H-pyrazolo[3,4-d]pyrimidin-4-one]: 0.0116 µM.
For the molecule `Cc1nccc(CN2C[C@@H](C)[C@H](c3nc4c(cnn4C4CCCC4)c(=O)[nH]3)C2)n1` [Example 53, 1-cyclopentyl-6-{(3S,4S)-4-methyl-1-[(2-methylpyrimidin-4-yl)methyl]pyrrolidin-3-yl}-1,5-dihydro-4H-pyrazolo[3,4-d]pyrimidin-4-one], the IC50 worked out at 0.0073 µM.
Still for that read-out and setting: next, `C[C@@H]1CN(Cc2ccc3nsnc3c2)C[C@H]1c1nc2c(cnn2C2CCOCC2)c(=O)[nH]1` [Example 84, 6-[(3S,4S)-1-(2,1,3-benzothiadiazol-5-ylmethyl)-4-methylpyrrolidin-3-yl]-1-(tetrahydro-2H-pyran-4-yl)-1,5-dihydro-4H-pyrazolo[3,4-d]pyrimidin-4-one]: 0.00187 µM.
Still for that read-out and setting: next, `CC[C@@H]1CN(Cc2ccccc2C#N)C[C@H]1c1nc2c(cnn2C2CCOCC2)c(=O)[nH]1` [Example 112, 2-({(3S,4S)-3-ethyl-4-[4-oxo-1-(tetrahydro-2H-pyran-4-yl)-45-dihydro-1H-pyrazolo[3,4-d]pyrimidin-6-yl]pyrrolidin-1-yl}methyl)benzonitrile]: 0.00137 µM.
As to `C[C@@H]1CN(Cc2ccccc2)C[C@H]1c1nc2c(cnn2C2CCC(F)(F)CC2)c(=O)[nH]1` (racemic) [Example 63, 6-[(3,4-trans)-1-benzyl-4-methylpyrrolidin-3-yl]-1-(4,4-difluorocyclohexyl)-1,5-dihydro-4H-pyrazolo[3,4-d]pyrimidin-4-one], the 50% inhibitory concentration (IC50) was found to be 0.123 µM.
On to `Cc1nn(C2CCCC2)c2nc([C@@H]3CN(Cc4ccccc4)C[C@H]3C)[nH]c(=O)c12` (racemic) [Example 22, 6-[(3,4-trans)-1-benzyl-4-methylpyrrolidin-3-yl]-1-cyclopentyl-3-methyl-1,5-dihydro-4H-pyrazolo[3,4-d]pyrimidin-4-one], for which the 50% inhibitory concentration (IC50) is 0.0436 µM.
On the same count and under the same terms, next, `CC[C@@H]1CN(Cc2ccc(C#N)cc2)C[C@H]1c1nc2c(cnn2C2CCOCC2)c(=O)[nH]1` [Example 114, 4-({(3S,4S)-3-ethyl-4-[4-oxo-1-(tetrahydro-2H-pyran-4-yl)-45-dihydro-1H-pyrazolo[3,4-d]pyrimidin-6-yl]pyrrolidin-1-yl}methyl)benzonitrile]: 0.00231 µM; `COc1cccc(CN2C[C@@H](C)[C@H](c3nc4c(cnn4C4CCOCC4)c(=O)[nH]3)C2)c1` [Example 104, 6-[(3S,4S)-1-(3-methoxybenzyl)-4-methylpyrrolidin-3-yl]-1-(tetrahydro-2H-pyran-4-yl)-1,5-dihydro-4H-pyrazolo[3,4-d]pyrimidin-4-one]: 0.00398 µM; `C[C@@H]1CN(Cc2cnc3ccccc3c2)C[C@H]1c1nc2c(cnn2C2CCCC2)c(=O)[nH]1` (racemic) [Example 19, 1-cyclopentyl-6-[(3,4-trans)-4-methyl-1-(quinolin-3-ylmethyl)pyrrolidin-3-yl]-1,5-dihydro-4H-pyrazolo[3,4-d]pyrimidin-4-one]: 0.00268 µM.

The test is the same for the next values; noted with them: human recombinant PDE9 from SF-9 cells; 50 nM [3H]cGMP; room temperature, 30 min; additional compounds Ex. 115-228; read-out: G5678A (U):IC50.
In the case of `C[C@@H]1CN(Cc2ccc3nsnc3c2)C[C@H]1c1nc2c(cnn2C2CCCC2)c(=O)[nH]1` (racemic) [Example 208, 6-[(3,4-trans)-1-(2,1,3-benzothiadiazol-5-ylmethyl)-4-methylpyrrolidin-3-yl]-1-cyclopentyl-1,5-dihydro-4H-pyrazolo[3,4-d]pyrimidin-4-one], the IC50 turned out to be 0.00713 µM.
As for `C[C@@H]1CN(Cc2cccc3c2OCC3)C[C@H]1c1nc2c(cnn2C2CCCC2)c(=O)[nH]1` (racemic) [Example 126, 1-cyclopentyl-6-[(3,4-trans)-1-(2,3-dihydro-1-benzofuran-7-ylmethyl)-4-methylpyrrolidin-3-yl]-1,5-dihydro-4H-pyrazolo[3,4-d]pyrimidin-4-one], the IC50 was 0.0887 µM.
Same read-out and setting: next, `COc1cccc(CN2C[C@@H](C)[C@H](c3nc4c(cnn4C4CCCC4)c(=O)[nH]3)C2)c1` (racemic) [Example 204, 1-cyclopentyl-6-[(3,4-trans)-1-(3-methoxybenzyl)-4-methylpyrrolidin-3-yl]-1,5-dihydro-4H-pyrazolo[3,4-d]pyrimidin-4-one]: 0.00956 µM; `CCn1cc(CN2C[C@@H](C)[C@H](c3nc4c(cnn4C4CCCC4)c(=O)[nH]3)C2)cn1` (racemic) [Example 170, 1-cyclopentyl-6-{(3,4-trans)-1-[(1-ethyl-1H-pyrazol-4-yl)methyl]-4-methylpyrrolidin-3-yl}-1,5-dihydro-4H-pyrazolo[3,4-d]pyrimidin-4-one]: 0.0746 µM; `Cc1ccccc1CN1C[C@@H](C)[C@H](c2nc3c(cnn3C3CCCC3)c(=O)[nH]2)C1` (relative stereo) [Example 180, 1-cyclopentyl-6-[(3,4-trans)-4-methyl-1-(2-methylbenzyl)pyrrolidin-3-yl]-1,5-dihydro-4H-pyrazolo[3,4-d]pyrimidin-4-one]: 0.0838 µM.
`C[C@@H]1CN(Cc2coc(-c3ccccc3)n2)C[C@H]1c1nc2c(cnn2C2CCCC2)c(=O)[nH]1` (racemic) [Example 179, 1-cyclopentyl-6-{(3,4-trans)-4-methyl-1-[(2-phenyl-1,3-oxazol-4-yl)methyl]pyrrolidin-3-yl}-1,5-dihydro-4H-pyrazolo[3,4-d]pyrimidin-4-one]: the IC50 is 0.0472 µM.
On the same count and under the same terms, next, `C[C@@H]1CN(Cc2ccc(F)c(Cl)c2)C[C@H]1c1nc2c(cnn2C2CCCC2)c(=O)[nH]1` (racemic) [Example 158, 6-[(3,4-trans)-1-(3-chloro-4-fluorobenzyl)-4-methylpyrrolidin-3-yl]-1-cyclopentyl-1,5-dihydro-4H-pyrazolo[3,4-d]pyrimidin-4-one]: 0.0509 µM; `C[C@@H]1CN(Cc2ccccc2Cl)C[C@H]1c1nc2c(cnn2C2CCCC2)c(=O)[nH]1` (racemic) [Example 219, 6-[(3,4-trans)-1-(2-chlorobenzyl)-4-methylpyrrolidin-3-yl]-1-cyclopentyl-1,5-dihydro-4H-pyrazolo[3,4-d]pyrimidin-4-one]: 0.0484 µM.
